In patent US12629400B2, “Pharmaceutical compositions and methods for treating or preventing bacterial infections in humans and in animals” (LaGray, Inc., priority 2023, dated 2026):
≈ marks a conversion by molar mass, not a printed value. Where two headings read alike, the source gives them in different places.

Legend:
Type in all cases: cell-based
[1] = test system: Clostridium difficile; assay: Agar dilution antibacterial susceptibility (MIC); conditions: Clostridioides difficile
[2] = test system: E. faecium (VRE); assay: Agar dilution antibacterial susceptibility (MIC); conditions: Enterococcus faecium
[3] = test system: Moraxella catarrhalis; assay: Agar dilution antibacterial susceptibility (MIC)
[4] = test system: Enterococcus faecium; assay: Agar dilution antibacterial susceptibility (MIC)
[5] = test system: Legionella pneumophila; assay: microbe, parasite or virus in culture
[6] = test system: Streptococcus pyogenes; assay: Agar dilution antibacterial susceptibility (MIC)
[7] = test system: Chlamydia pneumoniae; assay: Agar dilution antibacterial susceptibility (MIC)
[8] = test system: S. aureus (MRSA); assay: Agar dilution antibacterial susceptibility (MIC); conditions: Staphylococcus aureus
[9] = test system: S. pneumoniae (DRSP); assay: Agar dilution antibacterial susceptibility (MIC); conditions: Streptococcus pneumoniae
[10] = test system: Hemophilus influenzae; assay: Agar dilution antibacterial susceptibility (MIC); conditions: Haemophilus influenzae
[11] = test system: Staphylococcus aureus; assay: Agar dilution antibacterial susceptibility (MIC)
[12] = test system: Klebsiella pneumoniae; assay: Agar dilution antibacterial susceptibility (MIC)
[13] = test system: Streptococcus pneumoniae; assay: Agar dilution antibacterial susceptibility (MIC)
[14] = E. faecium (VRE), agar dilution, read-out: MIC
[15] = S. aureus (MRSA), agar dilution, read-out: MIC
[16] = S. pneumoniae (DRSP), agar dilution, read-out: MIC
[17] = Hemophilus influenzae, agar dilution, read-out: MIC

SMILES | MIC [1] | MIC [5] | MIC [2, 14] | MIC ([3]; agar dilution, read-out: MIC) | MIC ([4]; agar dilution, read-out: MIC) | MIC ([6]; agar dilution, read-out: MIC) | MIC ([7]; agar dilution, read-out: MIC) | MIC [8, 15] | MIC [9, 16] | MIC [10, 17] | MIC ([11]; agar dilution, read-out: MIC) | MIC ([12]; agar dilution, read-out: MIC) | MIC ([13]; agar dilution, read-out: MIC) | further results
CN[C@H](CC(C)C)C(=O)N[C@H]1C(=O)N[C@@H](CC(N)=O)C(=O)N[C@H]2C(=O)N[C@H]3C(=O)N[C@H](C(=O)N[C@H](C(=O)O)c4cc(O)cc(O)c4-c4cc3ccc4O)[C@H](O)c3ccc(c(Cl)c3)Oc3cc2cc(c3O[C@@H]2O[C@H](CO)[C@@H](O)[C@H](O)[C@H]2O[C@H]2C[C@](C)(N)[C@H](O)[C@H](C)O2)Oc2ccc(cc2Cl)[C@H]1O [Vancomycin, vancomycin] | 0.5 µg/mL (≈ 0.345 µM) | 0.06 µg/mL (≈ 0.0414 µM) | – | – | – | – | – | – | – | – | – | – | – | MIC ([2]; VRE): 125 µg/mL (≈ 86.3 µM); MIC [3]: 0.01 µg/mL (≈ 0.0069 µM); MIC [4]: 1 µg/mL (≈ 0.69 µM); MIC [6]: 0.06 µg/mL (≈ 0.0414 µM); MIC [7]: 0.5 µg/mL (≈ 0.345 µM); MIC ([8]; MRSA): 2 µg/mL (≈ 1.38 µM); MIC [9]: 0.5 µg/mL (≈ 0.345 µM); MIC [10]: 0.06 µg/mL (≈ 0.0414 µM); MIC [11]: 0.13 µg/mL (≈ 0.0897 µM); MIC [12]: 0.5 µg/mL (≈ 0.345 µM); MIC [13]: 0.25 µg/mL (≈ 0.173 µM)
CN(C)c1ccc(O)c2c1C[C@H]1C[C@H]3[C@H](N(C)C)C(O)=C(C(N)=O)C(=O)[C@@]3(O)C(O)=C1C2=O [Minocycline, minocycline] | 0.5 µg/mL (≈ 1.09 µM) | 0.12 µg/mL (≈ 0.262 µM) | 16 µg/mL (≈ 35 µM) | 0.03 µg/mL (≈ 0.0656 µM) | 0.5 µg/mL (≈ 1.09 µM) | 0.12 µg/mL (≈ 0.262 µM) | 0.5 µg/mL (≈ 1.09 µM) | 8 µg/mL (≈ 17.5 µM) | 16 µg/mL (≈ 35 µM) | 0.25 µg/mL (≈ 0.546 µM) | 0.25 µg/mL (≈ 0.546 µM) | 0.13 µg/mL (≈ 0.284 µM) | 0.5 µg/mL (≈ 1.09 µM) | –
O=C(O)c1cn(C2CC2)c2cc(N3CCNCC3)c(F)cc2c1=O [Ciprofloxacin, ciprofloxacin] | – | 0.06 µg/mL (≈ 0.181 µM) | 2 µg/mL (≈ 6.04 µM) | 0.25 µg/mL (≈ 0.754 µM) | 0.5 µg/mL (≈ 1.51 µM) | 0.5 µg/mL (≈ 1.51 µM) | 0.12 µg/mL (≈ 0.362 µM) | 32 µg/mL (≈ 96.6 µM) | 2 µg/mL (≈ 6.04 µM) | 0.15 µg/mL (≈ 0.453 µM) | 0.06 µg/mL (≈ 0.181 µM) | 0.06 µg/mL (≈ 0.181 µM) | 0.13 µg/mL (≈ 0.392 µM) | –
